Test results published in patent US9745320B2, “Five-and-six-membered heterocyclic compound, and preparation method, pharmaceutical composition and use thereof” (SHANGHAI CHEMEXPLORER CO., LTD., priority 2013, dated 2017).

What was measured:
Assay type in all cases: biochemical
JAK2 = JAK2 (Homo sapiens, UniProt O60674); assay: JAK 2 enzymatic inhibitory activity IC50 assay (Caliper conversion rate); conditions: Km ATP, 28° C., 1 hour
Summary of the method: (§1)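 Human JAK1 or JAK2 enzyme was preincubated with graded compound (2% DMSO) in HEPES pH 7.5/Brij-35/DTT buffer (JAK1 also with Triton), then peptide substrate, 10 mM MgCl2 and ATP at Km were added. Reactions ran 1 hour at 28° C; Caliper conversion rate gave inhibition, averaged over two tests, for IC50.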

JAK3 = target: T1, JAK3 (Homo sapiens, UniProt P52333); assay: JAK 3 enzymatic inhibitory activity IC50 assay (Caliper conversion rate); conditions: Km ATP, 28° C., 1 hour; read-out: JAK 3 enzymatic inhibitory activity IC50
T1 sequence (P52333 1-1124): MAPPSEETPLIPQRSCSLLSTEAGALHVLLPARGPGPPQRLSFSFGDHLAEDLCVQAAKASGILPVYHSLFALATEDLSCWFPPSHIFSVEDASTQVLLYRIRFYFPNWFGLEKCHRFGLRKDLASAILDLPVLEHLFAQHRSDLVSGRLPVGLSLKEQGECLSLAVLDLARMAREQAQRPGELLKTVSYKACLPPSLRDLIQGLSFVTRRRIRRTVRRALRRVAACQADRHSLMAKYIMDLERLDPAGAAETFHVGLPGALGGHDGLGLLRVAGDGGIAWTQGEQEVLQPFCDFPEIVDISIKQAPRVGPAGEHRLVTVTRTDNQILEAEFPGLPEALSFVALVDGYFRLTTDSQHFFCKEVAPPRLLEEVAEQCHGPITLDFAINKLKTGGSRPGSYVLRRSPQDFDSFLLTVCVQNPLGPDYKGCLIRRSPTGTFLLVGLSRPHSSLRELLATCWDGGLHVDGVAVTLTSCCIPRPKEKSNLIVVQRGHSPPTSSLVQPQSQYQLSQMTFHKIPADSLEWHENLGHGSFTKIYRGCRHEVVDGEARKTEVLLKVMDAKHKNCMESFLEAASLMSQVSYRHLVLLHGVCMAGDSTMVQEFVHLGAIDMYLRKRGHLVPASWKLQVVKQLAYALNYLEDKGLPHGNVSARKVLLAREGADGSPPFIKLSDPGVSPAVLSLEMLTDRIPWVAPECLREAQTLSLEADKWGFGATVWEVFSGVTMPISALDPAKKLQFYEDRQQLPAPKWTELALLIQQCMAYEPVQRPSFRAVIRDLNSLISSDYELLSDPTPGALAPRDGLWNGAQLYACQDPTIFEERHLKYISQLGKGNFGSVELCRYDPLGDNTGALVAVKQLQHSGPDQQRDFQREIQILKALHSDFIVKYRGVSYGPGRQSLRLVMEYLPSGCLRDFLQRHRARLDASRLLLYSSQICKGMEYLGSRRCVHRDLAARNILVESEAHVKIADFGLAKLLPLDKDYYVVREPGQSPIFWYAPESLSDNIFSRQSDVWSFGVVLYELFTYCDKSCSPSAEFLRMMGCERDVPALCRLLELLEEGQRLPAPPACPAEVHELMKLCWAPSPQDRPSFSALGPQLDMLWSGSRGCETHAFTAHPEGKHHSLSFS

JAK1 = JAK1 (Homo sapiens, UniProt P23458); assay: JAK 1 enzymatic inhibitory activity IC50 assay (Caliper conversion rate); conditions: Km ATP, 28° C., 1 hour
Summary of the method: as §1

Measured: IC50

Sequence of JAK2 (O60674 whole entry, species assumed): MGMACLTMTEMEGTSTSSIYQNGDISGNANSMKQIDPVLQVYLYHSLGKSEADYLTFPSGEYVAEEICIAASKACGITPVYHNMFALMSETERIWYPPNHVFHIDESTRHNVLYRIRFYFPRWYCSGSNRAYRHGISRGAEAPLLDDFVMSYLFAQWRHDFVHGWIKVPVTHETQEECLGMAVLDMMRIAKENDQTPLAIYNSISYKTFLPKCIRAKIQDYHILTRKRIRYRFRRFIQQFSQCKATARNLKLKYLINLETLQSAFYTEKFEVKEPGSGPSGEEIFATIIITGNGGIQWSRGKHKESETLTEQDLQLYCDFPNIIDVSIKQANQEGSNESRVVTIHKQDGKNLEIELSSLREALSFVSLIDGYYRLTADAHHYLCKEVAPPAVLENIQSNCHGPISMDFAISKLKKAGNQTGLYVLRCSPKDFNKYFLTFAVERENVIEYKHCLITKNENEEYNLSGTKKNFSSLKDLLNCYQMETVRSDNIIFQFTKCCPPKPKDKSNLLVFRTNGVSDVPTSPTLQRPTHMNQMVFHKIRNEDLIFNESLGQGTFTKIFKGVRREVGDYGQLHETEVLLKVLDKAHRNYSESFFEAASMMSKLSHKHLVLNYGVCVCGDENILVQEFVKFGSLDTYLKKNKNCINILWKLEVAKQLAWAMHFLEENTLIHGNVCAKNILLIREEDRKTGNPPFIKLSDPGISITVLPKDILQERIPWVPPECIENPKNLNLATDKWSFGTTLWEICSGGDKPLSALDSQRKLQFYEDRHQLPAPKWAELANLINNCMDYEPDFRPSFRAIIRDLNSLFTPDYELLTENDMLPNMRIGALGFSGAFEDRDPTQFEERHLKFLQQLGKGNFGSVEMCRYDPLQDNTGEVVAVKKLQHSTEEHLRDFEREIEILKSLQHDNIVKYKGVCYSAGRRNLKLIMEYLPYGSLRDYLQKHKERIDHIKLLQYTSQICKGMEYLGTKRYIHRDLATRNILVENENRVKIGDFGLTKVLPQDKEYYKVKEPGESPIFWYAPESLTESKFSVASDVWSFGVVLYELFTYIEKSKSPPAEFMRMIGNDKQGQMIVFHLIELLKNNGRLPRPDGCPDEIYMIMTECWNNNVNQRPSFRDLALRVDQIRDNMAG
Sequence of JAK1 (P23458 whole entry, species assumed): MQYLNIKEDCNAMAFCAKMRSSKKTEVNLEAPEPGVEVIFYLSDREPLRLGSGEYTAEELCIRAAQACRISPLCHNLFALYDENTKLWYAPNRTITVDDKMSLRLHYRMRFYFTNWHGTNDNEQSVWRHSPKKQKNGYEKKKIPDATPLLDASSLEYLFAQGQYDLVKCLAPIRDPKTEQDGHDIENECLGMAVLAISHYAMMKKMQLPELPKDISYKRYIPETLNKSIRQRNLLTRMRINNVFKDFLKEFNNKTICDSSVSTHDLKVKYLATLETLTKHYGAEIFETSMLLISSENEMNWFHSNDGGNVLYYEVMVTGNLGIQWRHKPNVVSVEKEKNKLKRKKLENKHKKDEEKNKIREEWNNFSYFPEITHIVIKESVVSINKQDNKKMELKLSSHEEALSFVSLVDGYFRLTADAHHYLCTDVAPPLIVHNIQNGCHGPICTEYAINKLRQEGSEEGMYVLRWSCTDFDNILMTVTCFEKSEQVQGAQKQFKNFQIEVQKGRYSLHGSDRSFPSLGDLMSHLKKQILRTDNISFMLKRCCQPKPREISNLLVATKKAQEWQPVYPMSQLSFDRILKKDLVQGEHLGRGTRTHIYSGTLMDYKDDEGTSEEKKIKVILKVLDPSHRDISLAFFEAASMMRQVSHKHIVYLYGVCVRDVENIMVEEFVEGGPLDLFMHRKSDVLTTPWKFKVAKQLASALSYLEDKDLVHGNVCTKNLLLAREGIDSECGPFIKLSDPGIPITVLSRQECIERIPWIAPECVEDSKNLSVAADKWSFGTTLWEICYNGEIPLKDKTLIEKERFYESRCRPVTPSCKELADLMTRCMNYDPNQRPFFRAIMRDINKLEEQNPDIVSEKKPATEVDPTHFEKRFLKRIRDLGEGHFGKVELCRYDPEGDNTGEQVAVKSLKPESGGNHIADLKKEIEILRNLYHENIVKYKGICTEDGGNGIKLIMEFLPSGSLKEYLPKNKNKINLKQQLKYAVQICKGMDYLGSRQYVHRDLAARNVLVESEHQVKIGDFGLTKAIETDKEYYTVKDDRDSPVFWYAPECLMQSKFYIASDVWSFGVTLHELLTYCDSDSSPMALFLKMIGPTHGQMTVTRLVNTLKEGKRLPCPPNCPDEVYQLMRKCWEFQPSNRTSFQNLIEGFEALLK

C[C@H](O)Cn1cc(Nc2nc(-c3cnn(C4(CC#N)CN(S(C)(=O)=O)C4)c3)c3sccc3n2)cn1 [Compound T-87, (S)-2-(3-(4-(2-((1-(2-Hydroxypropyl)-1H-pyrazol-4-yl)amino)thieno[3,2-d]pyrimidin-4-yl)-1H-pyrazol-1-yl)-1-(methylsulfonyl)azetidin-3-yl)acetonitrile]
< 50 nM: all assays above
